ChEMBL document CHEMBL4725268, “Anticonvulsant and analgesic in neuropathic pain activity in a group of new aminoalkanol derivatives” (Bioorg Med Chem Lett, 2020)
Activity calls are given as the source filed them.

How the values were obtained:
[1] = Genotoxicity in Salmonella typhimurium TA98 assessed as number of revertant at 2.5 ug by AMES test (reference value: 8 to 8.3); type: toxicity, Salmonella enterica subsp. enterica serovar Typhimurium; conditions: in vivo; dose 2.5 µg
[2] = Genotoxicity in Salmonella typhimurium TA98 assessed as mutagenic index at 2.5 ug by AMES test; type: toxicity, Salmonella enterica subsp. enterica serovar Typhimurium; conditions: in vivo; dose 2.5 µg
[3] = Antioxidant activity assessed as DPPH radical scavenging activity at 125 to 1000 uM by microplate method; type: functional; conditions: dose microM 125-1000
Mus musculus [4] = experiment: Anticonvulsant activity in ip dosed mouse assessed as protection against current-induced seizure by maximal electroshock seizure test; type: functional
[5] = Toxicity in mouse assessed as lethality at 10 mg/kg, ip; type: organism-based; conditions: in vivo
[6] = Toxicity in ip dosed mouse assessed as motor impairment by rotarod test; type: organism-based; conditions: in vivo
[7] = Protection index, ratio of TD50 for toxicity in ip dosed mouse to ED50 for anticonvulsant activity in ip dosed mouse; type: organism-based; conditions: in vivo, read-out: PI
Mus musculus [8] = experiment: Antiallodynic activity in mouse model of OXA-induced peripheral neuropathy assessed as mean latency time to nocifensive response at 18 mg/kg, ip administered after 3 hrs of OXA stimulation and measured after 1 hr by cold plate method (reference value: 59.76 +/- 0.16 sec); type: functional
Mus musculus [9] = experiment: Antiallodynic activity in mouse model of OXA-induced peripheral neuropathy assessed as mean paw withdrawal threshold at 18 mg/kg, ip administered after 3 hrs of OXA stimulation and measured after 1 hr by Von-frey method (reference value: 3.144 +/- 0.169 g); type: functional
Mus musculus [10] = experiment: Antiallodynic activity in mouse model of OXA-induced peripheral neuropathy assessed as mean latency time to nocifensive response at 18 mg/kg, ip administered after 7 days of OXA stimulation and measured after 1 hr by cold plate method (reference value: 57.64 +/- 1.267 sec); type: functional
Mus musculus [11] = experiment: Antiallodynic activity in mouse model of OXA-induced peripheral neuropathy assessed as mean paw withdrawal threshold at 18 mg/kg, ip administered after 7 days of OXA stimulation and measured after 1 hr by Von-frey method (reference value: 3.192 +/- 0.181 g); type: functional
[12] = molecular target: T1, 5-hydroxytryptamine receptor 1A (Homo sapiens) (UniProt P08908); experiment: Binding affinity to 5-HT1A (unknown origin) at 10^-5 M; conditions: dose 1.0 10^-5M
T1 sequence (whole entry): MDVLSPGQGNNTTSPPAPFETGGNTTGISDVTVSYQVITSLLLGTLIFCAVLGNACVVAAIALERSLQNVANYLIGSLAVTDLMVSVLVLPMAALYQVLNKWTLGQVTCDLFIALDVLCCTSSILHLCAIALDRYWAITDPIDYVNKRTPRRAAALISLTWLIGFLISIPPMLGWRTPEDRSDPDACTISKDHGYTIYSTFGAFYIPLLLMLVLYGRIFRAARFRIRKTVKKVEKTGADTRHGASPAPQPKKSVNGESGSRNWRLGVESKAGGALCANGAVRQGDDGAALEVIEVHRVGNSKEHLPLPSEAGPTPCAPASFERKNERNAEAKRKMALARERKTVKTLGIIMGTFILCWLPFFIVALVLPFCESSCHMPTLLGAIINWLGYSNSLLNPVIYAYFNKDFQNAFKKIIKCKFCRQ

[13] = Genotoxicity in Salmonella typhimurium TA100 assessed as number of revertant at 10 ug by AMES test (reference value: 64.3 to 130.7); type: toxicity, Salmonella enterica subsp. enterica serovar Typhimurium; conditions: in vivo; dose 10 µg
[14] = Genotoxicity in Salmonella typhimurium TA100 assessed as number of revertant at 75 ug by AMES test (reference value: 64.3 to 130.7); type: toxicity, Salmonella enterica subsp. enterica serovar Typhimurium; conditions: in vivo; dose 75 µg
[15] = Genotoxicity in Salmonella typhimurium TA100 assessed as number of revertant at 200 ug by AMES test (reference value: 64.3 to 130.7); type: toxicity, Salmonella enterica subsp. enterica serovar Typhimurium; conditions: in vivo; dose 200 µg
[16] = Genotoxicity in Salmonella typhimurium TA100 assessed as number of revertant at 500 ug by AMES test (reference value: 64.3 to 130.7); type: toxicity, Salmonella enterica subsp. enterica serovar Typhimurium; conditions: in vivo; dose 500 µg
[17] = Genotoxicity in Salmonella typhimurium TA100 assessed as number of revertant at 1000 ug by AMES test (reference value: 64.3 to 130.7); type: toxicity, Salmonella enterica subsp. enterica serovar Typhimurium; conditions: in vivo; dose 1000 µg
[18] = Genotoxicity in Salmonella typhimurium TA100 assessed as mutagenic index at 10 ug by AMES test; type: toxicity, Salmonella enterica subsp. enterica serovar Typhimurium; conditions: in vivo; dose 10 µg
[19] = Genotoxicity in Salmonella typhimurium TA100 assessed as mutagenic index at 75 ug by AMES test; type: toxicity, Salmonella enterica subsp. enterica serovar Typhimurium; conditions: in vivo; dose 75 µg
[20] = Genotoxicity in Salmonella typhimurium TA100 assessed as mutagenic index at 200 ug by AMES test; type: toxicity, Salmonella enterica subsp. enterica serovar Typhimurium; conditions: in vivo; dose 200 µg
[21] = Genotoxicity in Salmonella typhimurium TA100 assessed as mutagenic index at 500 ug by AMES test; type: toxicity, Salmonella enterica subsp. enterica serovar Typhimurium; conditions: in vivo; dose 500 µg
[22] = Genotoxicity in Salmonella typhimurium TA100 assessed as mutagenic index at 1000 ug by AMES test; type: toxicity, Salmonella enterica subsp. enterica serovar Typhimurium; conditions: in vivo; dose 1000 µg
[23] = Genotoxicity in Salmonella typhimurium TA98 assessed as number of revertant at 10 ug by AMES test (reference value: 8 to 8.3); type: toxicity, Salmonella enterica subsp. enterica serovar Typhimurium; conditions: in vivo; dose 10 µg
[24] = Genotoxicity in Salmonella typhimurium TA98 assessed as number of revertant at 75 ug by AMES test (reference value: 8 to 8.3); type: toxicity, Salmonella enterica subsp. enterica serovar Typhimurium; conditions: in vivo; dose 75 µg
[25] = Genotoxicity in Salmonella typhimurium TA98 assessed as number of revertant at 200 ug by AMES test (reference value: 8 to 8.3); type: toxicity, Salmonella enterica subsp. enterica serovar Typhimurium; conditions: in vivo; dose 200 µg
[26] = Genotoxicity in Salmonella typhimurium TA98 assessed as number of revertant at 500 ug by AMES test (reference value: 8 to 8.3); type: toxicity, Salmonella enterica subsp. enterica serovar Typhimurium; conditions: in vivo; dose 500 µg
[27] = Genotoxicity in Salmonella typhimurium TA98 assessed as number of revertant at 750 ug by AMES test (reference value: 8 to 8.3); type: toxicity, Salmonella enterica subsp. enterica serovar Typhimurium; conditions: in vivo; dose 750 µg
[28] = Genotoxicity in Salmonella typhimurium TA98 assessed as mutagenic index at 10 ug by AMES test; type: toxicity, Salmonella enterica subsp. enterica serovar Typhimurium; conditions: in vivo; dose 10 µg
[29] = Genotoxicity in Salmonella typhimurium TA98 assessed as mutagenic index at 75 ug by AMES test; type: toxicity, Salmonella enterica subsp. enterica serovar Typhimurium; conditions: in vivo; dose 75 µg
[30] = Genotoxicity in Salmonella typhimurium TA98 assessed as mutagenic index at 200 ug by AMES test; type: toxicity, Salmonella enterica subsp. enterica serovar Typhimurium; conditions: in vivo; dose 200 µg
[31] = Genotoxicity in Salmonella typhimurium TA98 assessed as mutagenic index at 500 ug by AMES test; type: toxicity, Salmonella enterica subsp. enterica serovar Typhimurium; conditions: in vivo; dose 500 µg
[32] = Genotoxicity in Salmonella typhimurium TA98 assessed as mutagenic index at 750 ug by AMES test; type: toxicity, Salmonella enterica subsp. enterica serovar Typhimurium; conditions: in vivo; dose 750 µg
Enterococcus faecalis = experiment: Antimicrobial activity against Enterococcus faecalis ATCC 29212 assessed as reduction in bacterial growth at 0.195 to 100 ug/ml by serial dilution method; type: organism-based; conditions: in vivo, dose 0.195-100 µg/ml
Escherichia coli [33] = experiment: Antimicrobial activity against Escherichia coli ATCC 25922 assessed as reduction in bacterial growth at 0.195 to 100 ug/ml by serial dilution method; type: organism-based; conditions: in vivo, dose 0.195-100 µg/ml
Escherichia coli [34] = experiment: Antimicrobial activity against Escherichia coli ATCC 35218 assessed as reduction in bacterial growth at 0.195 to 100 ug/ml by serial dilution method; type: organism-based; conditions: in vivo, dose 0.195-100 µg/ml
Staphylococcus aureus [35] = experiment: Antimicrobial activity against Staphylococcus aureus ATCC 25923 assessed as reduction in bacterial growth at 0.195 to 100 ug/ml by serial dilution method; type: organism-based; conditions: in vivo, dose 0.195-100 µg/ml
Staphylococcus aureus [36] = experiment: Antimicrobial activity against clinical strain Staphylococcus aureus assessed as reduction in bacterial growth at 0.195 to 100 ug/ml by serial dilution method; type: organism-based; conditions: in vivo, dose 0.195-100 µg/ml
Salmonella enterica = experiment: Antimicrobial activity against Salmonella enterica ATCC 51957 assessed as reduction in bacterial growth at 0.195 to 100 ug/ml by serial dilution method; type: organism-based; conditions: in vivo, dose 0.195-100 µg/ml
Bacteroides fragilis = experiment: Antimicrobial activity against Bacteroides fragilis ATCC 25285 assessed as reduction in bacterial growth at 0.195 to 100 ug/ml by disk diffusion method; type: organism-based; conditions: in vivo, dose 0.195-100 µg/ml
Hoylesella loescheii = experiment: Antimicrobial activity against Prevotella loescheii ATCC 15930 assessed as reduction in bacterial growth at 0.195 to 100 ug/ml by disk diffusion method; type: organism-based, DSM 19665 = JCM 12249 = ATCC 15930; conditions: in vivo, dose 0.195-100 µg/ml
[37] = Antimicrobial activity against clinical strain Bifidobacterium assessed as reduction in bacterial growth at 0.195 to 100 ug/ml by disk diffusion method; conditions: dose 0.195-100 µg/ml
Clostridioides difficile = experiment: Antimicrobial activity against clinical strain Clostridium difficile assessed as reduction in bacterial growth at 0.195 to 100 ug/ml by disk diffusion method; type: organism-based; conditions: in vivo, dose 0.195-100 µg/ml
[38] = Toxicity in mouse assessed as lethality at 50 mg/kg, ip; type: organism-based; conditions: in vivo
[39] = Drug metabolism in mouse microsome assessed as formation of monohydroxylated metabolite; type: ADME; conditions: microsomes
[40] = Genotoxicity in Salmonella typhimurium TA100 assessed as number of revertant at 750 ug by AMES test (reference value: 64.3 to 130.7); type: toxicity, Salmonella enterica subsp. enterica serovar Typhimurium; conditions: in vivo; dose 750 µg
[41] = Genotoxicity in Salmonella typhimurium TA100 assessed as mutagenic index at 750 ug by AMES test; type: toxicity, Salmonella enterica subsp. enterica serovar Typhimurium; conditions: in vivo; dose 750 µg
in vitro [42] = conditions: mouse, microsomes
Description: Metabolic stability in mouse microsome assessed as half life

in vitro [43] = conditions: mouse, microsomes; remark: listed apart in the source
Description: Metabolic stability in mouse microsome assessed as intrinsic clearance

Nc1ccc([N+](=O)[O-])cc1N
Activity [1]: 519
Activity_index [2]: 62.3

Cc1cc(C)c(C)c(OCCCN2CCC(O)CC2)c1
Activity [3]: inactive
ED50 (Mus musculus [4]): 17.7 mg/kg
Activity [5]: Non-Toxic
TD50 [6]: 63.4 mg/kg
selectivity ratio [7]: 3.58
Time (Mus musculus [8]): 15.167 s
Activity (Mus musculus [9]): 1.921 g
Time (Mus musculus [10]): 8.833 s
Activity (Mus musculus [11]): 2.027 g
Activity [12]: inactive
Activity [13]: 66
Activity [14]: 52.3
Activity [15]: 42
Activity [16]: 944
Activity [17]: 1190
Activity_index [18]: 1
Activity_index [19]: 0.8
Activity_index [20]: 0.7
Activity_index [21]: 14.7
Activity_index [22]: 18.5
Activity [23]: 12
Activity [24]: 15.3
Activity [25]: 11
Activity [26]: 6.7
Activity [27]: 364.3
Activity_index [28]: 1.4
Activity_index [29]: 1.8
Activity_index [30]: 1.3
Activity_index [31]: 0.8
Activity_index [32]: 43.7
Activity (Enterococcus faecalis): Non-Toxic
Activity (Escherichia coli [33]): Non-Toxic
Activity (Escherichia coli [34]): Non-Toxic
Activity (Staphylococcus aureus [35]): Non-Toxic
Activity (Staphylococcus aureus [36]): Non-Toxic
Activity (Salmonella enterica): Non-Toxic
Activity (Bacteroides fragilis): Non-Toxic
Activity (Hoylesella loescheii): Non-Toxic
Activity [37]: Non-Toxic
Activity (Clostridioides difficile): Non-Toxic

Cc1ccc(OCCCN2CCCC(O)C2)c(C)c1 (racemic)
ED50 (Mus musculus [4]): 34.8 mg/kg
Activity [38]: Non-Toxic
TD50 [6]: 108 mg/kg
selectivity ratio [7]: 3.09
Activity [12]: inactive
Drug metabolism [39]: Metabolite_Detected
Activity [13]: 89.5
Activity [14]: 69.5
Activity [15]: 88.5
Activity [16]: 81
Activity [40]: 3869.5
Activity_index [18]: 1.2
Activity_index [19]: 1
Activity_index [20]: 1.2
Activity_index [21]: 1.1
Activity_index [41]: 53.4
Activity [23]: 6.3
Activity [24]: 8
Activity [25]: 6.7
Activity [26]: 4.7
Activity [27]: 3.3
Activity_index [28]: 0.4
Activity_index [29]: 0.8
Activity_index [30]: 1.2
Activity_index [31]: 1
Activity_index [32]: 1
half-life (in vitro [42]): 28.6 min
microsomal CLint (in vitro [43]): 60.5 µL/min/mg
